The structures appear in SMILES notation.

Consider 1 compound from patent US12564596B2, “Agents and methods for modulating pathogen activity” (Griffith University, priority 2018, dated 2026).

Assay [1] concerns the target T1, N. gonorrhoeae MS11 pilin interaction with human rI-domain (Homo sapiens, UniProt P11215).
T1 construct: was performed with human rI-domain immobilized on a CM5 sensor chip surface; made in house
The assay can be described thus: SPR 1:1 competition assay, MS11 pilin binding to rI-domain. As to the method:
To determine if drugs with high affinity interactions with the human rI-domain could inhibit the interaction with MS11 pilin or HIV, competition assay between primary T-cell derived WITO HIV and N. gonorrhoeae MS11 pilin and the drugs were performed as described Mubaiwa et al (2017, Sci Rep. 7(1):5693). Competition analysis SPR of N. gonorrhoeae MS11 pilin and human rI-domain interaction was performed with human rI-domain immobilized on a CM5 sensor chip surface (low immobilization—˜3500 RU compared to ˜14000 RU for initial screening and KD calculations). N. gonorrhoeae MS11 purified pilin, drug or drug and pilin were flowed at 100 nM over the I-domain and the response units of the interactions were recorded.

The target in assay [2] is T2, human recombinant I-domain (rI-domain) of CD11b (Homo sapiens, UniProt P11215).
T2 construct: made in house
The assay is described as follows: Surface plasmon resonance binding to human rI-domain (KD). The note with it: SPR, single cycle kinetics, 25° C., PBS; read-out: KD. (Surface plasmon resonance follows binding to a sensor surface in real time, without labels.)

T1 sequence (P11215 150-328): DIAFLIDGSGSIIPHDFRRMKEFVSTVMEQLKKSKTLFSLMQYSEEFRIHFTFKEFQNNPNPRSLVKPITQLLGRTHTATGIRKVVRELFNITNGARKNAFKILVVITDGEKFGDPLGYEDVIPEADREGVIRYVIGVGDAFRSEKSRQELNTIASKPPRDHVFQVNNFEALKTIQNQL
T2 sequence (P11215 150-328 limits assumed): as the sequence (P11215 150-328) above

One may read the inhibition as the share of the control response that was lost under treatment. High values mean a strong effect, low ones a weak effect. The % inhibition is the percentage by which the read-out fell short of the control. Lower therefore signals little suppression. One may read the Kd as the constant that tells how readily two partners part at equilibrium. In assay [1] (1:1 competition, 100 nM), `NC(=O)N1c2ccccc2C=Cc2ccccc21` [carbamazepine, 5H-dibenzo[b,f]azepine-5-carboxamide] registered an inhibition at 0.1 µM of approximately 99%. For the same compound, in assay [1] (1:1 competition, 100 nM, 0.1 µM), the “% inhibition” value came out at 98.97%. Also, the “Block MS11 pilin in SPR” value in assay [1] (direct competition SPR) is recorded as “Yes”. Moreover, in assay [1] (drug alone flowed at 100 nM over immobilized rI-domain), the “Drug RU” value is recorded as 4.358 RU. Moreover, the “Pilin + Drug RU” value in assay [1] (drug and pilin flowed at 100 nM, 1:1) is recorded as 4.675 RU. Moreover, in assay [2], the Kd came to 2.12 nM.
